# Assay results taken from US10363261B2, “Enolase inhibitors and methods of treatment therewith” (Board of Regents, The University of Texas System, priority 2015, dated 2019).
# Assays:
# [1] = system: conversion of 13C-glucose to 13C-lactate in D423 ENO1-deleted glioma cells; assay: 13C-NMR tracing of uniformly labeled 13C-glucose to 13C-lactate; conditions: 48 hours, 10 mM 13C-uniformly labeled glucose
# Experimental: (§1) Glucose labeled with heavy, non-radioactive, ^13C at carbon C-1 and ^13C at all carbon atoms were purchased from Cambridge Isotopes (CLM-420-1 and CLM-1396, respectively). Glucose free DMEM media was supplemented with 10 mM ^13C-1 or ^13C-all labeled Glucose. NMR metabolic tracing was performed by substituting conventional DMEM medium with glucose free DMEM medium, to which ^13C-1 glucose (Cambridge Isotopes) was supplemented at 10 mM. […] After 4 days, conditioned media was extracted with 80% methanol at −80° C., lyophilized and resuspended in D2O. Proton-decoupled ^13C NMR spectra were acquired using a 500 MHZ Bruker instrument in the M. D. Anderson NMR core facility.
# [2] = system: lactate/glucose in D423 ENO1-rescued glioma cells; assay: 13C-NMR tracing of uniformly labeled 13C-glucose to 13C-lactate, rescued cells; conditions: even at 200 μM
# Experimental: as §1
# enolase (ENO1 and ENO2) = assay: Enolase inhibitory activity in vitro, isoform not distinguished (ENO1 and ENO2); type: biochemical, human; conditions: isolated enzymatic assay
# Experimental: (§2) Human ENO1 and ENO2 were overexpressed in the human D423 cell line and used for enzymatic assays. Inhibitors (PhAH, SF2312 and Deoxy-SF2312, Hex, Hepta, Pom-Hex, and Fosmidomycin) were incubated with the enzyme prior to addition of 5 mM 2-PG substrate. Enzymatic activity was measured by monitoring fluorescence of NADH at 340 nm Exitation/460 nm emission using an Lactate dehydrogenase/Pyruvate kinase linked assay which links the formation of PEP to the oxidation of NADH to NAD+, as we have described in published work (Muller et al., 2012). Enzymatic activity was normalized to that in the absence of the inhibitor (set to 1) and plotted as function of inhibitor concentration.
# (§3) Enolase activity was measured using two different methods, either by a fluorometric NADH-linked assay or a direct spectrophotometric assay via formation of PEP. In the fluorescent assay, enolase activity was measured via NADH oxidation in a pyruvate kinase-lactate dehydrogenase coupled assay as previously described (Muller, et al., 2012). The assay is conducted in 10 mM KCl, 5 mM MgSO4, 100 mM triethanolamine at pH 7.4, with 400 μM NADH and 2 mM ADP. 2-Phosphoglycerate (2-PGA), pyruvate kinase (PK) and lactate dehydrogenase (LDH) are provided in excess, with conversion of 2-PGA to PEP by enolase being rate limiting. PEP (with ADP) is substrate of PK; pyruvate formed by this reaction is linked to NADH oxidation by LDH. Enolase activity is determined by measuring oxidation of NADH fluorescently by excitation at 340 nm and emission at 460 nm. The substrate concentration, if not otherwise indicated, was 5 mM 2-PGA. Fluorescence was measured using Omega Fluorescence Plate Reader (BMG Labtech). Alternatively, Enolase activity was measured directly by the appearance of PEP from 2-PGA via absorption at 240 nm (Marangos, et al., 1978). The assay medium was the same, except that all the auxiliary reagents (PK/LDH, NADH, ADP) are omitted. Both assays were conducted in a 96-well plated format with the direct assay performed in UV-transmissible plates.
# human ENO1 = human ENO1 (Homo sapiens, UniProt P06733); assay: Enolase enzymatic activity, NADH-linked pyruvate kinase/lactate dehydrogenase fluorescence assay, ENO1
# Experimental: as §2, §3
# ENO2 = ENO2 (Homo sapiens, UniProt P09104); assay: Enolase enzymatic activity and Michaelis-Menten kinetic analysis, ENO2
# Experimental: Human ENO1 and ENO2 were overexpressed in the human D423 cell line and used for enzymatic assays. […] Enzymatic activity was measured by monitoring fluorescence of NADH at 340 nm Exitation/460 nm emission using an Lactate dehydrogenase/Pyruvate kinase linked assay which links the formation of PEP to the oxidation of NADH to NAD+, as we have described in published work (Muller et al., 2012). Enzymatic activity was normalized to that in the absence of the inhibitor (set to 1) and plotted as function of inhibitor concentration.
# The Michaelis-Menten Kinetic analysis was performed using standard methods in the field such as those taught by Voet and Voet, 2011. The enzymatic activity of Enolase 1 or 2 v was determine over a concentration range of 10 mM to 0.5 mM 2-PG [S], in the presence of increasing concentrations of inhibitor [I].
# Native lysates of mouse tissues and human cell lines were prepared using 20 mM Tris HCl, 1 mM EDTA, and 1 mM β-mercaptoethanol at pH 7.4 and homogenized using a Polytron homogenizer three times for a period of 10 s followed by sonication, after which the lysates were cleared by centrifugation at 20,000 g for 10 minutes. Enolase activity was measured using two different methods, either by a fluorometric NADH-linked assay or a direct spectrophotometric assay via formation of PEP. In the fluorescent assay, enolase activity was measured via NADH oxidation in a pyruvate kinase-lactate dehydrogenase coupled assay as previously described (Muller, et al., 2012). The assay is conducted in 10 mM KCl, 5 mM MgSO4, 100 mM triethanolamine at pH 7.4, with 400 μM NADH and 2 mM ADP. 2-Phosphoglycerate (2-PGA), pyruvate kinase (PK) and lactate dehydrogenase (LDH) are provided in excess, with conversion of 2-PGA to PEP by enolase being rate limiting. PEP (with ADP) is substrate of PK; pyruvate formed by this reaction is linked to NADH oxidation by LDH. Enolase activity is determined by measuring oxidation of NADH fluorescently by excitation at 340 nm and emission at 460 nm. The substrate concentration, if not otherwise indicated, was 5 mM 2-PGA. Fluorescence was measured using Omega Fluorescence Plate Reader (BMG Labtech). Alternatively, Enolase activity was measured directly by the appearance of PEP from 2-PGA via absorption at 240 nm (Marangos, et al., 1978). The assay medium was the same, except that all the auxiliary reagents (PK/LDH, NADH, ADP) are omitted. Both assays were conducted in a 96-well plated format with the direct assay performed in UV-transmissible plates.
# [3] = system: Vinculin or Triosephosphate isomerase; assay: Thermal shift assay, internal controls; type: binding, human
# Experimental: Thermal shift assays were conducted as described in Martinez Molina, et al. (2013), on lysates of D423 cell line overexpressing ENO1 and ENO2, on recombinant human ENO1 and ENO2 purified from E. coli as well as intact D423 ENO2 overexpressing glioma cells. […] Lysates were diluted (1:100) in Enolase enzymatic activity buffer as mentioned above. Diluted lysates were treated with SF2312, PhAH or vehicle and heated on a C1000 Thermal cycler (Bio-rad) with a linear temperature gradient (50 to 82.5° C. in 2.5° C. increments) for 3 minutes (FIG. 24). The lysates were then centrifuged at 20,000 g for 10 minutes. Supernatant and pellet were then separated and NuPage LDS Sample buffer (Life Technologies # NP0007) was added. Western Blots were performed as described previously (Muller, et al., 2012). The following antibodies were used: ENO1 (Abcam # ab155102), ENO2 (Dako # M087301-2), Vinculin (EMD Millipore #05-386), pan-ENO (Santa Cruz Biotechnology, sc-7455) and TPI (Proteintech #10713-1-AP). Recombinant human ENO2: The same procedure was carried out on purified recombinant ENO2 from E. coli, utilizing the purified protein generated for the X-ray crystallography studies. […]
# Sequence of ENO2 (P09104 whole entry): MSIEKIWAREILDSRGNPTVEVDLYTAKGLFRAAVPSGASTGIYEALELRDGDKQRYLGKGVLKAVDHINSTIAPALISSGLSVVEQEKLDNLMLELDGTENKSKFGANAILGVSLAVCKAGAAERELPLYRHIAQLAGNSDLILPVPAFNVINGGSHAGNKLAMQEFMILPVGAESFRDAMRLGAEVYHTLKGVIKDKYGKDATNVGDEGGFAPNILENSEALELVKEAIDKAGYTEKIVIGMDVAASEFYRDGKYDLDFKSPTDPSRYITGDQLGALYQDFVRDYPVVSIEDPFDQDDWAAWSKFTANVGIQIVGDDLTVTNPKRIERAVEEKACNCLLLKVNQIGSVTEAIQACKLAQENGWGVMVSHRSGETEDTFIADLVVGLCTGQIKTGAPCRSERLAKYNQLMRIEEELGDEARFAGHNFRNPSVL
# Sequence of human ENO1 (P06733 whole entry): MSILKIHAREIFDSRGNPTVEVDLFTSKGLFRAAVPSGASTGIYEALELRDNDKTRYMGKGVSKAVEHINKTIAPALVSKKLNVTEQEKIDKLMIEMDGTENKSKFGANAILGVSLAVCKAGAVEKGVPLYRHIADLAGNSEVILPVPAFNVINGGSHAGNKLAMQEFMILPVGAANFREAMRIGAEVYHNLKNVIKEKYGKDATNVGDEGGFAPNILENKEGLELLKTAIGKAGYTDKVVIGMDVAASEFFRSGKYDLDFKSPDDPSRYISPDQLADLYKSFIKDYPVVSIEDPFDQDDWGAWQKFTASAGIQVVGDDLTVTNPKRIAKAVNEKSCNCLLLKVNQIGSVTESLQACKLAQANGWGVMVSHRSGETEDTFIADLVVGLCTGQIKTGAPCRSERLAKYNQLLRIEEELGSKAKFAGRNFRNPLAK
smiles,measurement,setting,value
"O=C1C(P(=O)(O)O)CC(O)N1O (racemic) [SF2312, 3-dihydroxyphosphoryl-1,5-dihydroxy-2-pyrrolidone]",concentration sufficient to decrease the ratio of 13C Lactate/13C glucose by 70%,[1],6.25 µM
same,effect on lactate/glucose in ENO1-rescued cells,[2],neither PhAH nor SF2312 decreased lactate/glucose
same,IC50 lower than that of PhAH,enolase (ENO1 and ENO2),about 50%
same,IC50,human ENO1,~20 nM
same,IC50,ENO2,~20 nM
same,potency against ENO2 versus ENO1 (IC50 lower / activity greater for ENO2),ENO2; ENO2 over ENO1,10 fold
same,inhibition kinetics with respect to substrate 2-PGA,ENO2; SF2312: at IC50,non-competitive kinetics
same,effect on the thermal stability of the internal controls,[3],neither PhAH nor SF2312 had any effect
